Data as given in US10098883B2, “(Aza)pyridopyrazolopyrimidinones and indazolopyrimidinones and their use” (BAYER PHARMA AKTIENGESELLSCHAFT, priority 2013, dated 2018).
Where a name gives a salt, the structure may show the parent alone.

system: clot lysis (fibrinolysis) in human citrated plasma, tPA-induced; experiment: Plasma-based clot lysis assay (5%); format: biochemical; details: diluted human citrated plasma (platelet-poor, 5%), fibrinogen 3 μM, CaCl2 10 mM, tPA 0.2 nM, 37° C., OD 405 nm
Protocol: B-2. Plasma-based Clot Lysis Assay (5%)
The clot-lysis test system configures the kinetics of clot formation and degradation in vitro and allows quantifying modulation of the process by selected test compounds.
The test compounds were dissolved in 1% acetic acid and further complemented with an equal volume of DMSO. The resulting stock solutions were serially diluted in 0.5% acetic acid/50% DMSO. 1 μL aliquots of these solutions were placed into 384 well microplates (Greiner, black, transparent bottom), followed by 30 μL of diluted human citrated plasma (platelet-poor, final concentration: 5%; supplemented with fibrinogen, final concentration: 3 μM; dilution buffer: 20 mM HEPES, 150 mM NaCl, 0.01% Brij (pH 7)). The reactions were started by addition of […] of CaCl2 (final concentration: 10 mM), and tPA (tissue plasminogen activator, final concentration: 0.2 nM) in dilution buffer, followed by an additional volume of 20 μL dilution buffer for improved mixing. The reactions were incubated at 37° C. Clot formation and degradation was monitored spectrophotometrically by kinetic optical density measurements at 405 nm. IC50 values were determined by comparing the resulting time courses with the time course of a blank control reaction.

SMILES | IC50 [µM]
O=c1cc(C2CCNCC2)n2nc3cc(F)ccc3c2[nH]1 [Example 18, 8-Fluoro-4-(piperidin-4-yl)pyrimido[1,2-b]indazol-2(1H)-one hydrochloride] | 0.038
O=c1cc(C2CCNCC2)n2nc3cc(Br)ccc3c2[nH]1 [Example 21, 8-Bromo-4-(piperidin-4-yl)pyrimido[1,2-b]indazol-2(1H)-one hydrochloride] | 0.03
O=c1cc(C2CCNCC2)n2nc3cccc(O)c3c2[nH]1 [Example 105, 10-hydroxy-4-(piperidin-4-yl)pyrimido[1,2-b]indazol-2(1H)-one hydrobromide] | 0.074
O=c1cc(C2CCNCC2)n2nc3ccc(Cl)cc3c2[nH]1 [Example 5, 9-Chloro-4-(piperidin-4-yl)pyrimido[1,2-b]indazol-2(1H)-one hydrochloride] | 0.037
O=c1cc(C2CCNCC2)n2nc3cc(C(F)(F)F)cc([N+](=O)[O-])c3c2[nH]1 [Example 31, 10-Nitro-4-(piperidin-4-yl)-8-(trifluoromethyl)pyrimido[1,2-b]indazol-2(1H)-one hydrochloride] | 0.097
O=c1cc(C2CCNCC2)n2nc3cc(F)cc(F)c3c2[nH]1 [Example 23, 8,10-Difluoro-4-(piperidin-4-yl)pyrimido[1,2-b]indazol-2(1H)-one hydrochloride] | 0.028
O=c1cc(C2CCNCC2)n2nc3c(F)ccc(Br)c3c2[nH]1 [Example 71, 10-Bromo-7-fluoro-4-(piperidin-4-yl)pyrimido[1,2-b]indazol-2(1H)-one hydrochloride] | 0.015
O=c1cc(C2CCNCC2)n2nc3cccc(F)c3c2[nH]1 [Example 4, 10-Fluoro-4-(piperidin-4-yl)pyrimido[1,2-b]indazol-2(1H)-one hydrochloride] | 0.028
CCOc1cccc2nn3c([C@@H]4CCN[C@@H](C)C4)cc(=O)[nH]c3c12 [Example 52, (−)-trans-10-Ethoxy-4-(2-methylpiperidin-4-yl)pyrimido[1,2-b]indazol-2(1H)-one hydrochloride] | 0.013
O=c1cc(C2CCNCC2)n2nc3cccc(-c4nccs4)c3c2[nH]1 [Example 83, 4-(Piperidin-4-yl)-10-(1,3-thiazol-2-yl)pyrimido[1,2-b]indazol-2(1H)-one hydrochloride] | 0.041
O=c1cc(C2CCNCC2)n2nc3ccc(Br)cc3c2[nH]1 [Example 19, 9-Bromo-4-(piperidin-4-yl)pyrimido[1,2-b]indazol-2(1H)-one hydrochloride] | 0.026
Cc1ccc(Cl)c2c1nn1c(C3CCNCC3)cc(=O)[nH]c21 [Example 100, 10-Chloro-7-methyl-4-(piperidin-4-yl)pyrimido[1,2-b]indazol-2(1H)-one hydrochloride] | 0.03
O=c1cc(C2CCNCC2)n2nc3cccc(-n4cncn4)c3c2[nH]1 [Example 91, 4-(Piperidin-4-yl)-10-(1H-1,2,4-triazol-1-yl)pyrimido[1,2-b]indazol-2(1H)-one hydrochloride] | 0.027
O=c1cc(C2CCNCC2)n2nc3cccnc3c2[nH]1 [Example 9, 7-(Piperidin-4-yl)pyrido[3′,2′:3,4]pyrazolo[1,5-a]pyrimidin-9(10H)-one hydrochloride] | 0.036
C[C@H]1C[C@H](c2cc(=O)[nH]c3c4c(-c5ccccc5)ccnc4nn23)CCN1 [Example 51, (−)-trans-4-(2-Methylpiperidin-4-yl)-10-phenylpyrido[2′,3′:3,4]pyrazolo[1,5-a]pyrimidin-2(1H)-one hydrochloride] | 0.015
O=c1cc(C2CCNCC2)n2nc3ccc(F)c(-c4ccccc4)c3c2[nH]1 [Example 77, 9-Fluoro-10-phenyl-4-(piperidin-4-yl)pyrimido[1,2-b]indazol-2(1H)-one hydrochloride] | 0.011
O=c1cc(C2CCNCC2)n2nc3c(Cl)cc(Cl)cc3c2[nH]1 [Example 6, 7,9-Dichloro-4-(piperidin-4-yl)pyrimido[1,2-b]indazol-2(1H)-one hydrochloride] | 0.094
CC(C)Cc1cccc2nn3c(C4CCNCC4)cc(=O)[nH]c3c12 [Example 73, 10-Isobutyl-4-(piperidin-4-yl)pyrimido[1,2-b]indazol-2(1H)-one hydrochloride] | 0.023
Cc1cc(Cl)c2c(c1)nn1c(C3CCNCC3)cc(=O)[nH]c21 [Example 79, 10-Chloro-8-methyl-4-(piperidin-4-yl)pyrimido[1,2-b]indazol-2(1H)-one hydrochloride] | 0.011
O=c1cc(C2CCNCC2)n2nc3cccc(-c4ccccc4F)c3c2[nH]1 [Example 95, 10-(2-Fluorophenyl)-4-(piperidin-4-yl)pyrimido[1,2-b]indazol-2(1H)-one] | 0.018
O=c1cc(C2CCNCC2)n2nc3cncc(Br)c3c2[nH]1 [Example 43, 10-Bromo-4-(piperidin-4-yl)pyrido[3′,4′:3,4]pyrazolo[1,5-a]pyrimidin-2(1H)-one hydrochloride] | 0.1
O=c1cc(C2CCNCC2)n2nc3cccc(C4CCCC4)c3c2[nH]1 [Example 63, 10-Cyclopentyl-4-(piperidin-4-yl)pyrimido[1,2-b]indazol-2(1H)-one hydrochloride] | 0.013

Continued, values first:

IC50 [µM] | SMILES
0.11 | O=c1cc(C2CCNCC2)n2nc3nc(-c4ccc(F)cc4)cc(C(F)(F)F)c3c2[nH]1 [Example 42, 8-(4-Fluorophenyl)-4-(piperidin-4-yl)-10-(trifluoromethyl)pyrido[2′,3′:3,4]pyrazolo[1,5-a]pyrimidin-2(1H)-one hydrochloride]
0.05 | Cc1cc(C(F)(F)F)nc2nn3c(C4CCNCC4)cc(=O)[nH]c3c12 [Example 14, 10-Methyl-4-(piperidin-4-yl)-8-(trifluoromethyl)pyrido[2′,3′:3,4]pyrazolo[1,5-a]pyrimidin-2(1H)-one hydrochloride]
0.036 | Cc1cc(Br)c2c(c1)nn1c(C3CCNCC3)cc(=O)[nH]c21 [Example 89, 10-Bromo-8-methyl-4-(piperidin-4-yl)pyrimido[1,2-b]indazol-2(1H)-one hydrochloride]
0.035 | O=c1cc(C2CCNCC2)n2nc3cccc(-c4ccc[nH]4)c3c2[nH]1 [Example 104, 4-(piperidin-4-yl)-10-(1H-pyrrol-2-yl)pyrimido[1,2-b]indazol-2(1H)-one hydrochloride]
0.034 | Cc1ccc2c(n1)nn1c(C3CCNCC3)cc(=O)[nH]c21 [Example 24, 8-Methyl-4-(piperidin-4-yl)pyrido[2′,3′:3,4]pyrazolo[1,5-a]pyrimidin-2(1H)-one hydrochloride]
0.03 | COc1cccc(F)c1-c1cccc2nn3c(C4CCNCC4)cc(=O)[nH]c3c12 [Example 97, 10-(2-Fluoro-6-methoxyphenyl)-4-(piperidin-4-yl)pyrimido[1,2-b]indazol-2(1H)-one hydrochloride]
0.026 | O=c1cc(C2CCNCC2)n2nc3cccc(-c4cccs4)c3c2[nH]1 [Example 88, 4-(Piperidin-4-yl)-10-(2-thienyl)pyrimido[1,2-b]indazol-2(1H)-one hydrochloride]
0.024 | O=c1cc(C2CCNCC2)n2nc3ccc(F)c(Cl)c3c2[nH]1 [Example 90, 10-Chloro-9-fluoro-4-(piperidin-4-yl)pyrimido[1,2-b]indazol-2(1H)-one hydrochloride]
0.024 | O=c1cc(C2CCNCC2)n2nc3cccc(C4CC4)c3c2[nH]1 [Example 61, 10-Cyclopropyl-4-(piperidin-4-yl)pyrimido[1,2-b]indazol-2(1H)-one hydrochloride]
0.023 | O=c1cc(C2CCNCC2)n2nc3cc(C(F)(F)F)cc(Cl)c3c2[nH]1 [Example 41, 10-Chloro-4-(piperidin-4-yl)-8-(trifluoromethyl)pyrimido[1,2-b]indazol-2(1H)-one hydrochloride]
0.015 | O=c1cc(C2CCNCC2)n2nc3cccc(Cl)c3c2[nH]1 [Example 66, 10-Chloro-4-(piperidin-4-yl)pyrimido[1,2-b]indazol-2(1H)-one]
0.015 | O=c1cc(C2CCNCC2)n2nc3cccc(-c4c(F)cccc4F)c3c2[nH]1 [Example 78, 10-(2,6-Difluorophenyl)-4-(piperidin-4-yl)pyrimido[1,2-b]indazol-2(1H)-one hydrochloride]
0.014 | O=c1cc(C2CCNCC2)n2nc3cccc(-c4ccccc4)c3c2[nH]1 [Example 56, 10-Phenyl-4-(piperidin-4-yl)pyrimido[1,2-b]indazol-2(1H)-one hydrochloride]
0.014 | CCC(C)c1cccc2nn3c(C4CCNCC4)cc(=O)[nH]c3c12 (centres unmarked) [Example 72, 10-sec-Butyl-4-(piperidin-4-yl)pyrimido[1,2-b]indazol-2(1H)-one hydrochloride]

same assay, conditions: diluted human citrated plasma (platelet-poor, 5%), fibrinogen 3 μM, CaCl2 10 mM, tPA 0.2 nM, 37° C., OD 405 nm; hydrochloride

IC50 [µM] | SMILES
0.025 | C[C@H]1C[C@H](c2cc(=O)[nH]c3c4c(Cl)cccc4nn23)CCN1 [Example 68, (−)-trans-10-Chloro-4-(2-methylpiperidin-4-yl)pyrimido[1,2-b]indazol-2(1H)-one hydrochloride]

same assay, conditions: diluted human citrated plasma (platelet-poor, 5%), fibrinogen 3 μM, CaCl2 10 mM, tPA 0.2 nM, 37° C., OD 405 nm; trifluoroacetate

IC50 [µM] | SMILES
0.021 | N#Cc1cccc2nn3c(C4CCNCC4)cc(=O)[nH]c3c12 [Example 33, 2-Oxo-4-(piperidin-4-yl)-1,2-dihydropyrimido[1,2-b]indazole-10-carbonitrile trifluoroacetate]
